In patent publication US7622506B2, “Naphthalenedione compounds for treating inflammation related disorders and microbial infection” (SunTen Phytotech Co., Ltd., priority 2006, dated 2009):
pIC50: −log10 of the molar value. Read-outs that look alike come from different tables or passages of the source.

Tests used:
[1] = biological target: T1, 5-Lipoxygenase (Homo sapiens, UniProt P09917); assay: Inhibition of 5-Lipoxygenase activity; assay type: biochemical; settings: for IC50: IC50 (μM)
T1 sequence (P09917 1-674): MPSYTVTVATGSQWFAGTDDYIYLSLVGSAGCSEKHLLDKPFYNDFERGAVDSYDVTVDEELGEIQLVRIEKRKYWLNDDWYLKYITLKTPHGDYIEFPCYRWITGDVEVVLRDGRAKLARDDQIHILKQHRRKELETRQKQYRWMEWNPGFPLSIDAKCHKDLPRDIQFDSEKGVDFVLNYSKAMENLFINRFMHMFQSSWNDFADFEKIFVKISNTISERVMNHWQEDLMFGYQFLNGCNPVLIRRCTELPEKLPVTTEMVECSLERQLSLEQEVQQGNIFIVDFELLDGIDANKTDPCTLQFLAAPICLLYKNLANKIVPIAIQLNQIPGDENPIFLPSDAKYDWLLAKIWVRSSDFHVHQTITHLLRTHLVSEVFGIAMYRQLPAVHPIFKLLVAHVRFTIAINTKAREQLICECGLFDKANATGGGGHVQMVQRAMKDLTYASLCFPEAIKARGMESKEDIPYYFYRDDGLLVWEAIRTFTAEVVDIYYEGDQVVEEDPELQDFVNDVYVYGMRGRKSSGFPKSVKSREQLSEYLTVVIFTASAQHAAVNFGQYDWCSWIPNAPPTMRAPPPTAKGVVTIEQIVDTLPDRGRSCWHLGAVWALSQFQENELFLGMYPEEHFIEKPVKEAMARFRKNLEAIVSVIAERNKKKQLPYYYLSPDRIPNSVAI
Excerpt: 5-Lipoxygenase has been known to be a key enzyme in the bio-synthesis of leukotrienes, important mediators in inflammatory and allergic processes. […] The experiment was repeated using various concentrations of the compounds.

[2] = test system: methicillin-resistant Staphylococcus aureus (ATCC33591); assay: Growth inhibition of methicillin-resistant Staphylococcus aureus (ATCC33591); assay type: cell-based; settings: Table 5; repeated with various concentrations
Excerpt: In this example, the inhibition by the aforementioned compounds or extracts on the growth of methicillin-resistant Staphylococcus aureus (ATCC33591) was studied by a method modified from those described in Modugno et al., Antimicrobial Agents and Chemotherapy, 1994, 38: 2362-2368, and Misiek et al., Antimicrobial Agents Chemotherapy, 1973, 3: 40-48.
The above experiments on Staphylococcus aureus and Propionibacterium acnes were repeated using various concentrations of the compounds.

[3] = Table 2A, concentration 10 μM, read-out: % Inhibition
[4] = Table 2A, read-out: 5-Lipoxygenase, IC50
[5] = Table 2B, read-out: 5-Lipoxygenase, IC50

Molecule: CC(=O)O[C@H](CC=C(C)C)C1=CC(=O)c2c(O)ccc(O)c2C1=O [ASK, (R)-1-(5,8-dihydroxy-1,4-dioxo-1,4-dihydronaphthalen-2-yl)-4-methylpent-3-enyl acetate]
- inhibition at 10 µM [1]: 99%
- IC50 ([1]; 5-Lipoxygenase, Table 2A): 1.46 µM
- Anti-microbial Activity, effective concentration range, MRSA (μM) [2]: 0.9~3.0 μM

Molecule: CC(C)=CCCC1=CC(=O)c2c(O)ccc(O)c2C1=O [DSK, 5,8-dihydroxy-2-(4-methylpent-3-enyl)naphthalene-1,4-dione]
- inhibition at 10 µM [1]: 53%
- inhibition at 10 µg/mL [1]: 64%
- IC50 ([1]; 5-Lipoxygenase, Table 2A): 7.01 µM
- pIC50 ([1]; 5-Lipoxygenase, IC50, Table 2B): 4.70
- Anti-microbial Activity, effective concentration range, MRSA (μM) [2]: 7.8~26.0 μM

Molecule: CC(C)=CC[C@@H](O)C1=CC(=O)c2c(O)ccc(O)c2C1=O [SK, (R)-5,8-dihydroxy-2-(1-hydroxy-4-methylpent-3-enyl)naphthalene-1,4-dione]
- pIC50 [1]: 6.41
- inhibition at 1 µM [1]: 70%
- inhibition at 1 µg/mL [1]: 51%
- inhibition at 10 µM [1]: 101%
- pIC50 ([1]; 5-Lipoxygenase, IC50, Table 2B): 5.53
- Anti-microbial Activity, effective concentration range, MRSA (μM) [2]: 10.4~34.7 μM

Molecule: CC(C)=CC[C@@H](OC(=O)C=C(C)C)C1=CC(=O)c2c(O)ccc(O)c2C1=O [BSK]
- inhibition at 10 µM [1, 3]: 99%
- pIC50 [1, 4]: 5.92
- Anti-microbial Activity, effective concentration range, MRSA [2]: 2.8 µM

Molecule: epigallocatechin-3 gallate [EGCG, reference compound]
- % Inhibition ([1]; Table 2B, concentration 100 μM): 58%
- pIC50 [1, 5]: 4.06

Molecule: Gentamicin [reference compound]
- Anti-microbial Activity, effective concentration range, MRSA [2]: 2.1 µM

Molecule: CC(C)=CC[C@@H](OC(=O)C(C)C)C1=CC(=O)c2c(O)ccc(O)c2C1=O [ISK, (R)-1-(5,8-dihydroxy-1,4-dioxo-1,4-dihydronaphthalen-2-yl)-4-methylpent-3-enyl isobutyrate]
- inhibition at 10 µM [1, 3]: 98%
- pIC50 [1, 4]: 5.81
- Anti-microbial Activity, effective concentration range, MRSA [2]: 7.7 µM

Molecule: Cc1cc(C2CCCCC2)n(O)c(=O)c1 [Ciclpirox Olamine, reference compound]
- inhibition at 30 µM ([1]; Table 2B, concentration 30 μM): 66%
- pIC50 [1, 5]: 4.77
- Anti-microbial Activity, effective concentration range, MRSA [2]: 37.3 µM

Molecule: CCC(C)C(=O)O[C@H](CC=C(C)C)C1=CC(=O)c2c(O)ccc(O)c2C1=O (some centres unmarked) [MBSK, 1-(5,8-dihydroxy-1,4-dioxo-1,4-dihydronaphthalen-2-yl)-4-methylpent-3-enyl 2-methylbutanoate]
- inhibition at 10 µM [1, 3]: 98%
- pIC50 [1, 4]: 5.86
- Anti-microbial Activity, effective concentration range, MRSA [2]: 2.7 µM
